Data reported in patent US20260116920A1, “HUMAN TRANSFERRIN RECEPTOR BINDING PEPTIDE” (PEPTIDREAM INC., priority 2021, published 2026).
Where two headings read alike, the source gives them in different places. Positions of bridges follow the written chain, without caps; N, C: chain ends. Non-standard residues stand in square brackets, D forms with d. Residues, ends and D or L forms follow the SMILES beside them. *: point of attachment. Trp(1-CH2COOH) = N[C@@H](Cc1cn(CC(=O)O)c2ccccc12)C(=O)O; BCN(endo) = O=C(OC[C@@H]1[C@@H]2CCC#CCC[C@@H]21)*; Phe(3-COOH) = N[C@@H](Cc1cccc(C(=O)O)c1)C(=O)O; NMePhe(3-Cl) = CN[C@@H](Cc1cccc(Cl)c1)C(=O)O; 3Pal(6-NH2) = Nc1ccc(C[C@H](N)C(=O)O)cn1; NMeY = CN[C@@H](Cc1ccc(O)cc1)C(=O)O; 3Pal = N[C@@H](Cc1cccnc1)C(=O)O; PEG4 = NCCOCCOCCOCCOCCC(=O)O; Carboxymethyl = O=C(O)C*

Target: T1, human transferrin receptor (hTfR) (Homo sapiens, UniProt P02786)
T1 construct: made in house
Experiment: Evaluation of molecular interaction between transferrin receptor (hTfR) and peptide using surface plasmon resonance (SPR)
Format: binding
How it was run: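 Binding kinetics of peptides to immobilized recombinant human TfR dimer were measured by SPR at 5–100 nM in a single-cycle format, with KD obtained from curve fitting.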

[1] = KD class for binding to hTfR by SPR, peptide with the linker shown in the same line, 'low signal indicates no activity', read-out: SPR
[2] = surface plasmon resonance, binding to hTfR, KD class symbol, read-out: SPR (KD value)

T1 sequence (P02786 89-760 limits assumed): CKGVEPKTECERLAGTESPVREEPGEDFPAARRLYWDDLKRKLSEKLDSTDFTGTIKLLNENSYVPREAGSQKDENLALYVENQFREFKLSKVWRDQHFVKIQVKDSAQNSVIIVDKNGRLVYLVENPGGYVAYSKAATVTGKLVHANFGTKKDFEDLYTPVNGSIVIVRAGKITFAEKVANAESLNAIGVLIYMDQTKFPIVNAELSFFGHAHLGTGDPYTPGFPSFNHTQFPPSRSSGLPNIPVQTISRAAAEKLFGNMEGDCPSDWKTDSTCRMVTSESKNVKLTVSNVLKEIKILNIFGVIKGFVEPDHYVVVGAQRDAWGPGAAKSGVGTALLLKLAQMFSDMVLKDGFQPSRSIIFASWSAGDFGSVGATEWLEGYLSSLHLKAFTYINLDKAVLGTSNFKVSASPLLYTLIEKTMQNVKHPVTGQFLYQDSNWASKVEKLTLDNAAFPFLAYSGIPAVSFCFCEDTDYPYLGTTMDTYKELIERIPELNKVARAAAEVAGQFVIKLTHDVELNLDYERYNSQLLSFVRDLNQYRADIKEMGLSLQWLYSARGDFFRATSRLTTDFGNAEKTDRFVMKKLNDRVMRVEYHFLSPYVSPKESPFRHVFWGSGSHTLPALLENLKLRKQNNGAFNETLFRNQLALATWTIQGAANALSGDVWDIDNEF

| Kd [1] [nM] | Kd [2] [nM] | SMILES |
| --- | --- | --- |
| < 1 |  | CC[C@H](C)[C@@H]1NC(=O)[C@H](Cc2ccc(OCC(=O)O)cc2)NC(=O)[C@H](Cc2ccc(O)cc2)NC(=O)[C@H](CC(N)=O)NC(=O)[C@H](Cc2cn(CC(=O)O)c3ccccc23)NC(=O)[C@H](C(C)C)NC(=O)[C@H](Cc2cccc(Cl)c2)N(C)C(=O)[C@H](C(C)C)NC(=O)[C@H](C)NC(=O)CSC[C@@H](C(=O)NCC(=O)N[C@H](CO)C(=O)N[C@H](CO)C(=O)N[C@H](CO)C(=O)N[C@H](CO)C(=O)N[C@H](CO)C(=O)N[C@@H](CCCCNC(=O)OC[C@@H]2[C@@H]3CCC#CCC[C@@H]32)C(N)=O)NC(=O)[C@H](Cc2ccc(O)cc2)N(C)C(=O)[C@H](Cc2ccccc2)NC(=O)[C@H](CCCNC(=N)N)NC(=O)[C@H](CCCNC(=N)N)NC(=O)[C@H]([C@@H](C)CC)NC1=O [894_3198] ({CH2CO}-AV[NMePhe(3-Cl)]V[Trp(1-CH2COOH)]NYY(Carboxymethyl)IIRRF[NMeY]CG[dS][dS][dS][dS][dS]K(BCN(endo))-NH2; thioether N-15) |
| < 1 |  | CC[C@H](C)[C@@H]1NC(=O)[C@H](Cc2ccc(OCC(=O)O)cc2)NC(=O)[C@H](Cc2ccc(O)cc2)NC(=O)[C@H](CC(N)=O)NC(=O)[C@H](Cc2cn(CC(=O)O)c3ccccc23)NC(=O)[C@H](C(C)C)NC(=O)[C@H](Cc2cccc(Cl)c2)N(C)C(=O)[C@H](C(C)C)NC(=O)[C@H](C)NC(=O)CSC[C@@H](C(=O)NCC(=O)N[C@@H](CCCCNC(=O)OC[C@@H]2[C@@H]3CCC#CCC[C@@H]32)C(N)=O)NC(=O)[C@H](Cc2ccc(O)cc2)N(C)C(=O)[C@H](Cc2ccccc2)NC(=O)[C@H](CCCNC(=N)N)NC(=O)[C@H](CCC(=O)NCCOCCOCCOCCOCCOCCOCCOCCOC)NC(=O)[C@H]([C@@H](C)CC)NC1=O [894_3199] |
| < 1 |  | CC[C@H](C)[C@@H]1NC(=O)[C@H](Cc2ccc(O)cc2)NC(=O)[C@H](Cc2ccc(O)cc2)NC(=O)[C@H](CC(N)=O)NC(=O)[C@H](Cc2c[nH]c3ccccc23)N(C)C(=O)[C@H](C(C)C)NC(=O)[C@H](Cc2ccccc2)N(C)C(=O)[C@H](C(C)C)NC(=O)[C@H](C)NC(=O)CSC[C@@H](C(=O)NCC(=O)N[C@H](CO)C(=O)N[C@H](CO)C(=O)N[C@H](CO)C(=O)N[C@H](CO)C(=O)N[C@H](CO)C(=O)N[C@@H](CCCCN=[N+]=[N-])C(N)=O)NC(=O)[C@H](Cc2ccc(O)cc2)N(C)C(=O)[C@H](Cc2ccc(O)cc2)NC(=O)[C@H](CCCNC(=N)N)NC(=O)[C@H](CCCCN)NC(=O)[C@H]([C@@H](C)CC)NC1=O [894_3200] |
| 1 to 100 |  | CC[C@H](C)[C@@H]1NC(=O)[C@H](Cc2cccnc2)NC(=O)[C@H](Cc2ccc(N)nc2)NC(=O)[C@H](CC(N)=O)NC(=O)[C@H](Cc2c[nH]c3ccccc23)NC(=O)[C@H](C(C)C)NC(=O)[C@H](Cc2cccc(Cl)c2)N(C)C(=O)[C@H](C(C)C)NC(=O)[C@H](C)NC(=O)CSC[C@@H](C(=O)NCCOCCOCCOCCOCCC(N)=O)NC(=O)[C@H](Cc2ccc(O)cc2)N(C)C(=O)[C@H](Cc2cccc(C(=O)O)c2)NC(=O)[C@H](CCCNC(=N)N)NC(=O)[C@H](CCCNC(=N)N)NC(=O)[C@H]([C@@H](C)CC)NC1=O [SEQ ID No. 198] ({CH2CO}-AV[NMePhe(3-Cl)]VWN[3Pal(6-NH2)][3Pal]IIRR[Phe(3-COOH)][NMeY]C[PEG4]-NH2; thioether N-15) |
|  | 1 to 100 | CC[C@H](C)[C@@H]1NC(=O)[C@H](Cc2ccc(O)cc2)NC(=O)[C@H](Cc2ccc(O)cc2)NC(=O)[C@H](CC(N)=O)NC(=O)[C@H](Cc2c[nH]c3ccccc23)NC(=O)[C@H](C(C)C)NC(=O)[C@H](Cc2ccccc2)N(C)C(=O)[C@H](C(C)C)NC(=O)[C@H](C)NC(=O)CSC[C@@H](C(N)=O)NC(=O)[C@H](Cc2ccc(O)cc2)N(C)C(=O)[C@H](Cc2ccccc2)NC(=O)[C@H](CCCNC(=N)N)NC(=O)[C@H](CCCCNC(=O)CCOCCOCCOCCOC)NC(=O)[C@H]([C@@H](C)CC)NC1=O [compound 1] |
|  | 1 to 100 | CC[C@H](C)[C@@H]1NC(=O)[C@H](Cc2ccc(O)cc2)NC(=O)[C@H](Cc2ccc(O)cc2)NC(=O)[C@H](CC(N)=O)NC(=O)[C@H](Cc2c[nH]c3ccccc23)NC(=O)[C@H](C(C)C)NC(=O)[C@H](Cc2ccccc2)N(C)C(=O)[C@H](C(C)C)NC(=O)[C@H](C)NC(=O)CSC[C@@H](C(N)=O)NC(=O)[C@H](Cc2ccc(O)cc2)N(C)C(=O)[C@H](Cc2ccccc2)NC(=O)[C@H](CCCCNC(=O)CCOCCOCCOCCOC)NC(=O)[C@H](CCCNC(=N)N)NC(=O)[C@H]([C@@H](C)CC)NC1=O [compound 2] |
|  | 1 to 100 | CC[C@H](C)[C@@H]1NC(=O)[C@H](Cc2ccc(O)cc2)NC(=O)[C@H](Cc2ccc(O)cc2)NC(=O)[C@H](CC(N)=O)NC(=O)[C@H](Cc2c[nH]c3ccc(Cl)cc23)NC(=O)[C@H](C(C)C)NC(=O)[C@H](Cc2ccc(F)cc2)N(C)C(=O)[C@H](C(C)C)NC(=O)[C@H](C)NC(=O)CSC[C@@H](C(N)=O)NC(=O)[C@H](Cc2ccc(O)cc2)N(C)C(=O)[C@H](Cc2ccccc2)NC(=O)[C@H](CCCCNC(=O)CCOCCOCCOCCOC)NC(=O)[C@H](CCCNC(=N)N)N(C)C(=O)[C@H]([C@@H](C)CC)NC1=O [compound 3] |
|  | 1 to 100 | CC[C@H](C)[C@@H]1NC(=O)[C@H](Cc2ccc(OC)cc2)NC(=O)[C@H](Cc2ccc(O)cc2)NC(=O)[C@H](CC(N)=O)NC(=O)[C@H](Cc2c[nH]c3ccc(Cl)cc23)NC(=O)[C@H](C(C)C)NC(=O)[C@H](Cc2ccc(F)cc2)N(C)C(=O)[C@H](C(C)C)NC(=O)[C@H](C)NC(=O)CSC[C@@H](C(N)=O)NC(=O)[C@H](Cc2ccc(O)cc2)N(C)C(=O)[C@H](Cc2ccccc2)NC(=O)[C@H](CCCCNC(=O)CCOCCOCCOCCOC)NC(=O)[C@H](CCCNC(=N)N)N(C)C(=O)[C@H]([C@@H](C)CC)NC1=O [compound 4] |
|  | 1 to 100 | CC[C@H](C)[C@@H]1NC(=O)[C@H](Cc2ccc(O)cc2)NC(=O)[C@H](Cc2ccc(O)cc2)NC(=O)[C@H](CC(N)=O)NC(=O)[C@H](Cc2c[nH]c3ccccc23)N(C)C(=O)[C@H](C(C)C)NC(=O)[C@H](Cc2ccc(F)cc2)N(C)C(=O)[C@H](C(C)C)NC(=O)[C@H](C)NC(=O)CSC[C@@H](C(N)=O)NC(=O)[C@H](Cc2ccc(O)cc2)N(C)C(=O)[C@H](Cc2ccccc2)NC(=O)[C@@H](CCCNC(=N)N)NC(=O)[C@H](CCCCNC(=O)CCOCCOCCOCCOC)NC(=O)[C@H]([C@@H](C)CC)NC1=O [compound 5] |
|  | 1 to 100 | CC[C@H](C)[C@@H]1NC(=O)[C@H](Cc2ccc(OC)cc2)NC(=O)[C@H](Cc2ccc(O)cc2)NC(=O)[C@H](CC(N)=O)NC(=O)[C@H](Cc2c[nH]c3ccccc23)N(C)C(=O)[C@H](C(C)C)NC(=O)[C@H](Cc2ccc(F)cc2)N(C)C(=O)[C@H](C(C)C)NC(=O)[C@H](C)NC(=O)CSC[C@@H](C(N)=O)NC(=O)[C@H](Cc2ccc(O)cc2)N(C)C(=O)[C@H](Cc2ccccc2)NC(=O)[C@@H](CCCNC(=N)N)NC(=O)[C@H](CCCCNC(=O)CCOCCOCCOCCOC)NC(=O)[C@H]([C@@H](C)CC)NC1=O [compound 6] |
|  | 1 to 100 | CC[C@H](C)[C@@H]1NC(=O)[C@H](Cc2ccc(O)cc2)NC(=O)[C@H](Cc2ccc(O)cc2)NC(=O)[C@H](CC(N)=O)NC(=O)[C@H](Cc2c[nH]c3ccccc23)N(C)C(=O)[C@H](C(C)C)NC(=O)[C@H](Cc2ccc(F)cc2)N(C)C(=O)[C@H](C(C)C)NC(=O)[C@H](C)NC(=O)CSC[C@@H](C(N)=O)NC(=O)[C@H](Cc2ccc(O)cc2)N(C)C(=O)[C@H](Cc2ccccc2)NC(=O)[C@H](CCCCNC(=O)CCOCCOCCOCCOC)NC(=O)[C@H](CCCNC(=N)N)N(C)C(=O)[C@H]([C@@H](C)CC)NC1=O [compound 7] |
|  | 1 to 100 | CC[C@H](C)[C@@H]1NC(=O)[C@H](Cc2ccc(OC)cc2)NC(=O)[C@H](Cc2ccc(O)cc2)NC(=O)[C@H](CC(N)=O)NC(=O)[C@H](Cc2c[nH]c3ccccc23)N(C)C(=O)[C@H](C(C)C)NC(=O)[C@H](Cc2ccc(F)cc2)N(C)C(=O)[C@H](C(C)C)NC(=O)[C@H](C)NC(=O)CSC[C@@H](C(N)=O)NC(=O)[C@H](Cc2ccc(O)cc2)N(C)C(=O)[C@H](Cc2ccccc2)NC(=O)[C@H](CCCCNC(=O)CCOCCOCCOCCOC)NC(=O)[C@H](CCCNC(=N)N)N(C)C(=O)[C@H]([C@@H](C)CC)NC1=O [compound 8] |
|  | 100 to 1000 | CC[C@H](C)[C@@H]1NC(=O)[C@H](Cc2ccc(O)cc2)NC(=O)[C@H](Cc2ccc(O)cc2)NC(=O)[C@H](CC(=O)N(C)C)NC(=O)[C@H](Cc2c[nH]c3ccccc23)NC(=O)[C@H](C(C)C)NC(=O)[C@H](Cc2ccccc2)N(C)C(=O)[C@H](C(C)C)NC(=O)[C@H](C)NC(=O)CSC[C@@H](C(N)=O)NC(=O)[C@H](Cc2ccc(O)cc2)N(C)C(=O)[C@H](Cc2ccc(O)cc2)NC(=O)[C@H](CCCNC(=N)N)NC(=O)[C@H](CCCNC(=N)N)NC(=O)[C@H]([C@@H](C)CC)NC1=O [compound 9] |
|  | 1 to 100 | CC[C@H](C)[C@@H]1NC(=O)[C@H](Cc2ccc(OC)cc2)NC(=O)[C@H](Cc2ccc(O)cc2)NC(=O)[C@H](CC(N)=O)NC(=O)[C@H](Cc2c[nH]c3ccccc23)N(C)C(=O)[C@H](C(C)C)NC(=O)[C@H](Cc2cccc(Cl)c2)N(C)C(=O)[C@H](C(C)C)NC(=O)[C@H](C)N(C)C(=O)CSC[C@@H](C(=O)NCCOCCOCCOCCOCCC(N)=O)NC(=O)[C@H](Cc2ccc(O)cc2)N(C)C(=O)[C@H](Cc2ccccc2)NC(=O)[C@@H](C)NC(=O)[C@H](CCCNC(=N)N)NC(=O)[C@H]([C@@H](C)CC)NC1=O [compound 10] |
|  | 1 to 100 | CC[C@H](C)[C@@H]1NC(=O)[C@H](Cc2ccc(OC)cc2)NC(=O)[C@H](Cc2ccc(O)cc2)NC(=O)[C@H](CC(N)=O)NC(=O)[C@H](Cc2c[nH]c3ccccc23)NC(=O)[C@H](C(C)C)NC(=O)[C@H](Cc2cccc(Cl)c2)N(C)C(=O)[C@H](C(C)C)NC(=O)[C@H](C)NC(=O)CSC[C@@H](C(=O)NCC(=O)N[C@@H](CCCCN=[N+]=[N-])C(N)=O)NC(=O)[C@H](Cc2ccc(O)cc2)N(C)C(=O)[C@H](Cc2ccccc2)NC(=O)[C@H](CCCNC(=N)N)NC(=O)[C@H](CCCNC(=N)N)NC(=O)[C@H]([C@@H](C)CC)NC1=O [compound 11] |
